Experimental data from PMC6009887, “New quinoxalinone inhibitors targeting secreted phospholipase A2 and α-glucosidase” (Journal of Enzyme Inhibition and Medicinal Chemistry, 2017).
Where two headings read alike, the source gives them in different places.

Experiments:
hG-IIA sPLA2 = molecular target: T1, hG-IIA sPLA2 (Homo sapiens, UniProt P14555); assay: Inhibition of sPLA2 activity, colorimetric lecithin/red phenol assay, group IIA; format: biochemical
T1 sequence (P14555 21-144): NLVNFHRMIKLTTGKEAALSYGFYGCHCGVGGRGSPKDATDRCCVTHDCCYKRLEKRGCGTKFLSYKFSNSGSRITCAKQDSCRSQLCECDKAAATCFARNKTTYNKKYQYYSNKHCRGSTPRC
Method: (§3) Briefly, the substrate consisted of 3.5 mM lecithin in a mixture of 3 mM NaTDC “Sodium taurodeoxycholate”, 100 mM NaCl, 10 mM CaCl2, and 0.055 mM red phenol as colorimetric indicator in 100 ml H2O. The pH of the reaction mixture was adjusted to 7.6. The human group IB (pG-IB), IIA (hG-IIA), V (hG-V), X (hG-X), and XII (hG-XII) sPLA2 were solubilised in 10% acetonitrile at a concentration of 0.02 μg/μL. A volume of 10 μL of these PLA2 solutions was incubated with 10 μL of each compound for 20 min at room temperature. […] The inhibition percentage was calculated by comparison with a control experiment (absence of compound).

pG-IB sPLA2 = pG-IB sPLA2 (Sus scrofa, UniProt P00592); assay: Inhibition of sPLA2 activity, colorimetric lecithin/red phenol assay, group IB; format: biochemical, porcine
Method: as §3

hG-XIIA sPLA2 = molecular target: T2, hG-XIIA sPLA2 (Homo sapiens, UniProt Q9BZM1); assay: Inhibition of sPLA2 activity, colorimetric lecithin/red phenol assay, group XII; format: biochemical
T2 sequence (Q9BZM1 23-189): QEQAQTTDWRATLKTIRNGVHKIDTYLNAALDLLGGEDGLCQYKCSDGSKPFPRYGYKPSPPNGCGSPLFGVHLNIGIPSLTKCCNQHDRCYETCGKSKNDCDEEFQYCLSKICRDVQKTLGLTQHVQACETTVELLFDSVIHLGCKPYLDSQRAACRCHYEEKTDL
Method: as §3

hG-X sPLA2 = molecular target: T3, hG-X sPLA2 (Homo sapiens, UniProt O15496); assay: Inhibition of sPLA2 activity, colorimetric lecithin/red phenol assay, group X; format: biochemical
T3 sequence (O15496 43-165): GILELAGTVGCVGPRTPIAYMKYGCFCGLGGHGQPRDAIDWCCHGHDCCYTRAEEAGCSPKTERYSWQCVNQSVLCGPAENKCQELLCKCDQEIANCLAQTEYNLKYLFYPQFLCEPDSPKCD
Method: (§1) The test of inhibitory activity of sPLA2 was performed as described by Lobo de Araujo and Radvanyi[41]. Briefly, the substrate consisted of 3.5 mM lecithin in a mixture of 3 mM NaTDC “Sodium taurodeoxycholate”, 100 mM NaCl, 10 mM CaCl2, and 0.055 mM red phenol as colorimetric indicator in 100 ml H2O. The pH of the reaction mixture was adjusted to 7.6. The human group IB (pG-IB), IIA (hG-IIA), V (hG-V), X (hG-X), and XII (hG-XII) sPLA2 were solubilised in 10% acetonitrile at a concentration of 0.02 μg/μL. A volume of 10 μL of these PLA2 solutions was incubated with 10 μL of each compound for 20 min at room temperature. Then, 1 ml of the PLA2 substrate was added, and the kinetic of hydrolysis was followed during 5 min by reading the optical density at 558 nm. The inhibition percentage was calculated by comparison with a control experiment (absence of compound).
(§2) In order to evaluate the potential anti-inflammatory activity of the 12 studied compounds, we tested their inhibitory effects using several human sPLA2 isozymes, […], hG-V, hG-X, and hG-XII, involved in the inflammatory process and porcine pG-IB sPLA2 which hydrolyses dietary phospholipids.

hG-V sPLA2 = molecular target: T4, hG-V sPLA2 (Homo sapiens, UniProt P39877); assay: Inhibition of sPLA2 activity, colorimetric lecithin/red phenol assay, group V; format: biochemical
T4 sequence (P39877 21-138): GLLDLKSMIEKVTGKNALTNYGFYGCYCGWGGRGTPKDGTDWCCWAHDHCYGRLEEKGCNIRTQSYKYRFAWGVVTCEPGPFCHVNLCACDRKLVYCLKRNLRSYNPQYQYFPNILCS
Method: as §1, §2

[1] = ± standard deviation, duplicate, read-out: IC50 (µM) Against Phospholipase hG-IIA
[2] = ± standard deviation, duplicate, read-out: IC50 (µM) Against Phospholipase pG-IB
[3] = ± standard deviation, duplicate, read-out: IC50 (µM) Against Phospholipase hG-XIIA
[4] = ± standard deviation, duplicate, read-out: IC50 (µM) Against Phospholipase hG-X
[5] = ± standard deviation, duplicate, read-out: IC50 (µM) Against Phospholipase hG-V

Chain of pG-IB sPLA2 (P00592 23-146): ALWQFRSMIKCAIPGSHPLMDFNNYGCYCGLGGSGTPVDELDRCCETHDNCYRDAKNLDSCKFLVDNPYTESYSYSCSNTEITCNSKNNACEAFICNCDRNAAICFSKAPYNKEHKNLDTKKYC

| SMILES | melting point [°C] | IC50 (hG-IIA sPLA2; [1]) [µM] | IC50 (pG-IB sPLA2; [2]) [µM] | IC50 (hG-XIIA sPLA2; [3]) [µM] | IC50 (hG-X sPLA2; [4]) [µM] | IC50 (hG-V sPLA2; [5]) [µM] | IC50 (hG-IIA sPLA2) [µM] | IC50 (pG-IB sPLA2) [µM] | IC50 (hG-XIIA sPLA2) [µM] | IC50 (hG-X sPLA2) [µM] | IC50 (hG-V sPLA2) [µM] |
| --- | --- | --- | --- | --- | --- | --- | --- | --- | --- | --- | --- |
| COc1cc(/C=N/Nc2nc3ccccc3[nH]c2=O)cc(OC)c1OC [Compound 3a, (E)-3-(2-(3,4,5-trimethoxybenzylidene)hydrazinyl)quinoxalin-2(1H)-one] | 258 to 260 | 2.48 ± 0.28 | 9.31 ± 0.36 | 3.04 ± 0.67 | 1.26 ± 0.05 | 1.46 ± 0.47 |  |  |  |  |  |
| O=c1[nH]c2ccccc2nc1N/N=C/c1ccc([N+](=O)[O-])cc1[N+](=O)[O-] [Compound 3b, (E)-3-(2-(2,4-dinitrobenzylidene)hydrazinyl)quinoxalin-2(1H)-one] | 283 to 285 |  |  |  |  |  | 5.36 ± 0.73 | 10.7 ± 0.67 | 2.28 ± 0.08 | 2.54 ± 0.42 | 1.12 ± 0.31 |
| O=c1[nH]c2ccccc2nc1N/N=C/c1ccc(O)cc1O [Compound 3c, (E)-3-(2-(2,4-dihydroxybenzylidene)hydrazinyl)quinoxalin-2(1H)-one] | 292 to 294 | 3.71 ± 0.27 | 13.3 ± 0.5 | 6.75 ± 0.17 | 12.5 ± 0.87 | 9.45 ± 0.13 |  |  |  |  |  |
| O=c1[nH]c2ccccc2nc1N/N=C/c1ccc(Cl)c(Cl)c1 [Compound 3d, (E)-3-(2-(3,4-dichlorobenzylidene)hydrazinyl)quinoxalin-2(1H)-one] | 244 to 246 | 4.5 ± 0.33 | 13.5 ± 1.02 | 10.5 ± 1.74 | 3 ± 0.63 | 5.7 ± 0.27 |  |  |  |  |  |
| O=c1[nH]c2ccccc2nc1N/N=C/c1cccs1 [Compound 3e, (E)-3-(2-(thiophen-2-ylmethylene)hydrazinyl)quinoxalin-2(1H)-one] |  | 2.81 ± 0.33 | 10.7 ± 0.92 | 3.81 ± 0.99 | 4.43 ± 1.03 | 6.28 ± 0.4 |  |  |  |  |  |
| COc1cccc(/C=N/Nc2nc3ccccc3[nH]c2=O)c1 [Compound 3f, (E)-3-(2-(3-methoxybenzylidene)hydrazinyl)quinoxalin-2(1H)-one] |  | 1.9 ± 0.3 | 12.4 ± 0.03 | 0.84 ± 0.07 | 0.33 ± 0.06 | 1.22 ± 0.3 |  |  |  |  |  |
| O=c1[nH]c2ccccc2n2c(-c3ccc([N+](=O)[O-])cc3[N+](=O)[O-])nnc12 [Compound 4b, 1-(2,4-Dinitrophenyl)-[1,2,4]triazolo[4,3-a]quinoxalin-4(5H)-one] | > 300 |  |  |  |  |  | 0.76 ± 0.01 | 13.6 ± 0.7 | 2.58 ± 0.43 | 1.05 ± 0.08 | 1.53 ± 0.14 |
| CC1(C)CC[C@]2(C(=O)O)CC[C@]3(C)C(=CC[C@@H]4[C@@]5(C)CC[C@H](O)C(C)(C)[C@@H]5CC[C@]43C)[C@@H]2C1 [Oleanolic acid, reference compound] |  |  |  |  |  | 16.4 ± 1.53 |  |  |  |  |  |

Now from value to molecule, other results behind:

| melting point [°C] | IC50 (hG-IIA sPLA2; [1]) [µM] | IC50 (pG-IB sPLA2; [2]) [µM] | IC50 (hG-XIIA sPLA2; [3]) [µM] | IC50 (hG-X sPLA2; [4]) [µM] | IC50 (hG-V sPLA2; [5]) [µM] | SMILES | IC50 (hG-IIA sPLA2) [µM] | IC50 (pG-IB sPLA2) [µM] | IC50 (hG-XIIA sPLA2) [µM] | IC50 (hG-X sPLA2) [µM] | IC50 (hG-V sPLA2) [µM] |
| --- | --- | --- | --- | --- | --- | --- | --- | --- | --- | --- | --- |
| 227 to 229 | 13.05 ± 0.05 | 14.2 ± 1.22 | 13.2 ± 0.21 | 12.2 ± 0.47 | 11.3 ± 0.08 | COc1cc(-c2nnc3c(=O)[nH]c4ccccc4n23)cc(OC)c1OC [Compound 4a, 1-(3,4,5-Trimethoxyphenyl)-[1,2,4]triazolo[4,3-a]quinoxalin-4(5H)-one] |  |  |  |  |  |
| > 300 | 1.32 ± 0.16 | 14.8 ± 0.44 | 0.91 ± 0.05 | 0.61 ± 0.03 | 1.05 ± 0.13 | O=c1[nH]c2ccccc2n2c(-c3ccc(O)cc3O)nnc12 [Compound 4c, 1-(2,4-Dihydroxyphenyl)-[1,2,4]triazolo[4,3-a]quinoxalin-4(5H)-one] |  |  |  |  |  |
|  | 1.81 ± 0.04 | 14.5 ± 0.87 | 1.41 ± 0.07 | 2.71 ± 0.07 | 3.04 ± 0.57 | O=c1[nH]c2ccccc2n2c(-c3ccc(Cl)c(Cl)c3)nnc12 [Compound 4d, 1-(3,4-Dichlorophenyl)-[1,2,4]triazolo[4,3-a]quinoxalin-4(5H)-one] |  |  |  |  |  |
|  | 16.8 ± 0.41 | 16.8 ± 0.93 | 18.6 ± 1.33 | 17.9 ± 0.94 | 18.6 ± 0.56 | O=c1[nH]c2ccccc2n2c(-c3cccs3)nnc12 [Compound 4e, 1-(Thiophen-2-yl)-[1,2,4]triazolo[4,3-a]quinoxalin-4(5H)-one] |  |  |  |  |  |
| 286 to 288 | 17.1 ± 0.41 | 16 ± 1.71 | 15.8 ± 1.29 | 14.4 ± 0.52 | 15.8 ± 0.85 | COc1cccc(-c2nnc3c(=O)[nH]c4ccccc4n23)c1 [Compound 4f, 1-(3-Methoxyphenyl)-[1,2,4]triazolo[4,3-a]quinoxalin-4(5H)-one] |  |  |  |  |  |
